Values quoted from earlier work as cited in US20250295646A1, “METHODS OF USE OF T-TYPE CALCIUM CHANNEL MODULATORS” (Praxis Precision Medicines, Inc., priority 2022, published 2025).

Conditions: WO 2020/072773, cited from earlier work

CC(C)c1ccc(CC(=O)N[C@H](C)c2ccc(OCC(F)(F)F)cn2)cc1 [CX-8998]
discontinuation due to intolerability of adverse events (28-day essential tremor study): 17%
discontinuation rate (28-day essential tremor study): 23%
tolerability of doses of 20 and 24 mg: less well tolerated
single doses generally well tolerated (non-titrated): up to 16 mg
